Measurements as given in patent US12479847B2 (DANA-FARBER CANCER INSTITUTE, INC., priority 2019, dated 2025).

Tests used:
Experiment in all cases: KINOMEscan (ScanMAX) kinase profiling
Type in all cases: binding
panel of 468 kinases [1] = molecular target: T1, panel of 468 kinases (Homo sapiens, UniProt O14757); details: CHEK1; 1 μM; read-out: % control
T1 construct: purchased KINOMEscan (ScanMAX) service
T1 sequence (O14757 1-476): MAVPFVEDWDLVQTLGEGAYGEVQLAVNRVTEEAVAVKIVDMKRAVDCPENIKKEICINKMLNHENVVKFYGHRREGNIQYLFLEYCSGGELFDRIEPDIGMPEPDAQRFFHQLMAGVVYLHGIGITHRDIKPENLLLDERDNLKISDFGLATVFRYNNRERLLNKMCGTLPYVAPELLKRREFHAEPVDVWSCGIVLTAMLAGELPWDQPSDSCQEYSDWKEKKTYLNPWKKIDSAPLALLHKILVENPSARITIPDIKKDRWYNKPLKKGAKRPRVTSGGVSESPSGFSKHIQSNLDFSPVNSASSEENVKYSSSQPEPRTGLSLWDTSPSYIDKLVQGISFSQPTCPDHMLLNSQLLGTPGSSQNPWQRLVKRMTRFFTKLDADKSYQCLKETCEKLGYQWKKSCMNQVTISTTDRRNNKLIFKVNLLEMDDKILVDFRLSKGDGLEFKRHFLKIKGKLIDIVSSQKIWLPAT

panel of 468 kinases [2] = molecular target: T2, panel of 468 kinases (Homo sapiens, UniProt O94768); details: DRAK2; 1 μM; read-out: % control
T2 construct: purchased KINOMEscan (ScanMAX) service
T2 sequence (O94768 1-372): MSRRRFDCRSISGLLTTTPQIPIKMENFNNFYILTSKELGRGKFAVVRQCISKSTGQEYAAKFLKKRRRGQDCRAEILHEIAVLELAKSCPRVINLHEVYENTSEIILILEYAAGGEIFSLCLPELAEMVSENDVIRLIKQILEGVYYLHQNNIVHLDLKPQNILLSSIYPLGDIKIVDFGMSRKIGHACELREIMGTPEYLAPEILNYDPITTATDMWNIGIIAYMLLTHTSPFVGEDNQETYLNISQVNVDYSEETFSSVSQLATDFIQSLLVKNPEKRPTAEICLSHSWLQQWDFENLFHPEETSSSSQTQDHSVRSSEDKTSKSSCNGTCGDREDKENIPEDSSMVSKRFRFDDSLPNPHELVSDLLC

panel of 468 kinases [3] = molecular target: T3, panel of 468 kinases (Homo sapiens, UniProt O96017); details: CHEK2; 1 μM; read-out: % control
T3 construct: purchased KINOMEscan (ScanMAX) service
T3 sequence (O96017 whole entry): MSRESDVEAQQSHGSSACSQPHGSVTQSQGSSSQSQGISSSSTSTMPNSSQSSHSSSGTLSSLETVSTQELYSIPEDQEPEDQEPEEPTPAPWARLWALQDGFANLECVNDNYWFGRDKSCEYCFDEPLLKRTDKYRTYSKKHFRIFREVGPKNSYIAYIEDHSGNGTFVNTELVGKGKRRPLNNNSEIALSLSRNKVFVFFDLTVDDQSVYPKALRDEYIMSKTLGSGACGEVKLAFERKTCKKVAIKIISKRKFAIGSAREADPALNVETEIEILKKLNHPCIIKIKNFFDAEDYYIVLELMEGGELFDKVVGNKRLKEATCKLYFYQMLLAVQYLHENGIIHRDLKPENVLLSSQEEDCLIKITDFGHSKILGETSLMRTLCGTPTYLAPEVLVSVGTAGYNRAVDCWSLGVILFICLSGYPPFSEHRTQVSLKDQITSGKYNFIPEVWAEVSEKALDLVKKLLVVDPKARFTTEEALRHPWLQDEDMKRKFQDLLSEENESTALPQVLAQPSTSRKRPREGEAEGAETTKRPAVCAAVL

panel of 468 kinases [4] = molecular target: T4, panel of 468 kinases (Homo sapiens, UniProt Q15375); details: EPHA7; 1 μM; read-out: % control
T4 construct: purchased KINOMEscan (ScanMAX) service
T4 sequence (Q15375 28-998): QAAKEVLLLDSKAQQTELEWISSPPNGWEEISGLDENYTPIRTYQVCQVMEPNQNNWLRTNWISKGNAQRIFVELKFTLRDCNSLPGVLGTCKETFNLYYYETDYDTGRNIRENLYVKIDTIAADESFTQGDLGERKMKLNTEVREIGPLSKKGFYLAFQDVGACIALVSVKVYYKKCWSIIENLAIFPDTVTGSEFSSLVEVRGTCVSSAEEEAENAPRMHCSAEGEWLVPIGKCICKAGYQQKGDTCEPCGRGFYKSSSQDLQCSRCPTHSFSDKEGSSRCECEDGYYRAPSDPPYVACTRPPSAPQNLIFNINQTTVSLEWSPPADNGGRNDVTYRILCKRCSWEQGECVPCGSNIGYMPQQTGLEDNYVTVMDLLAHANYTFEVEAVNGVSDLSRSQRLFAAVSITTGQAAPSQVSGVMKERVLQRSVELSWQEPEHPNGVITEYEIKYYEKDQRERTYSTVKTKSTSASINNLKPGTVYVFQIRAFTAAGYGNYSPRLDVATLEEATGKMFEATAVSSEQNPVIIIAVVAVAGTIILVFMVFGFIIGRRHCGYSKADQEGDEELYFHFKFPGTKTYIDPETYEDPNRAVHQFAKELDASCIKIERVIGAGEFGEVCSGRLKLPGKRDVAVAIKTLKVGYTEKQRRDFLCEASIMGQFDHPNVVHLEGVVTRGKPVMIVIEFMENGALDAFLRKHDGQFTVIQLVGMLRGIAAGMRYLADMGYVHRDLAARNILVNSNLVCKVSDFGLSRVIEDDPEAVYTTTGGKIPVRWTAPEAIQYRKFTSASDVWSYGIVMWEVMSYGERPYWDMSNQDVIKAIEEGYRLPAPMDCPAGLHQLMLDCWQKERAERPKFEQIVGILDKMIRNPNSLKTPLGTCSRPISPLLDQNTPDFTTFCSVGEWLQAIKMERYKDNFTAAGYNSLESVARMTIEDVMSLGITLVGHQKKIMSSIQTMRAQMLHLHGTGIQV

panel of 468 kinases [5] = molecular target: T5, panel of 468 kinases (Homo sapiens, UniProt Q7KZI7); details: MARK2; 1 μM; read-out: % control
T5 construct: purchased KINOMEscan (ScanMAX) service
T5 sequence (Q7KZI7 whole entry): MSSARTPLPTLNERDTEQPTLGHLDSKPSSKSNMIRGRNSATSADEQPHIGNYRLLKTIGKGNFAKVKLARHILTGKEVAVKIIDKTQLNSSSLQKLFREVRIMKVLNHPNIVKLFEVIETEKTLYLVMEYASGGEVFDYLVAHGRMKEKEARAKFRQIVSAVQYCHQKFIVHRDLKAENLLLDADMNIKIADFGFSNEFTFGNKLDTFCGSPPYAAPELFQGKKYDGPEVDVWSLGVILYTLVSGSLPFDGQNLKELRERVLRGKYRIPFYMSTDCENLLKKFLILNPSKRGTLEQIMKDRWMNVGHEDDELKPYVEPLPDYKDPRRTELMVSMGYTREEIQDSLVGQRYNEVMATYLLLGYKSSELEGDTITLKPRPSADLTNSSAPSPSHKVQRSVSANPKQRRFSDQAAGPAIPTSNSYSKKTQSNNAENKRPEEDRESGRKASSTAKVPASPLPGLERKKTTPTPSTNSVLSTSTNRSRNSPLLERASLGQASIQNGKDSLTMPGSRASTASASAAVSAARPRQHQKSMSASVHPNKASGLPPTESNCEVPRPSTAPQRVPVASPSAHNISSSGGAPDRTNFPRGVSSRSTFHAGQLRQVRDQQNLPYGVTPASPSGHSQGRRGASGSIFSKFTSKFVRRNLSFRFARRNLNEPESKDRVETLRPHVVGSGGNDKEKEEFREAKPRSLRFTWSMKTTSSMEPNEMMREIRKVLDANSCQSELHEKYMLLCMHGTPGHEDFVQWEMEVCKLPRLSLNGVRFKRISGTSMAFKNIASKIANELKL

panel of 468 kinases [6] = molecular target: T6, panel of 468 kinases (Homo sapiens, UniProt Q7L7X3); details: TAOK1; 1 μM; read-out: % control
T6 construct: purchased KINOMEscan (ScanMAX) service
T6 sequence (Q7L7X3 1-1001): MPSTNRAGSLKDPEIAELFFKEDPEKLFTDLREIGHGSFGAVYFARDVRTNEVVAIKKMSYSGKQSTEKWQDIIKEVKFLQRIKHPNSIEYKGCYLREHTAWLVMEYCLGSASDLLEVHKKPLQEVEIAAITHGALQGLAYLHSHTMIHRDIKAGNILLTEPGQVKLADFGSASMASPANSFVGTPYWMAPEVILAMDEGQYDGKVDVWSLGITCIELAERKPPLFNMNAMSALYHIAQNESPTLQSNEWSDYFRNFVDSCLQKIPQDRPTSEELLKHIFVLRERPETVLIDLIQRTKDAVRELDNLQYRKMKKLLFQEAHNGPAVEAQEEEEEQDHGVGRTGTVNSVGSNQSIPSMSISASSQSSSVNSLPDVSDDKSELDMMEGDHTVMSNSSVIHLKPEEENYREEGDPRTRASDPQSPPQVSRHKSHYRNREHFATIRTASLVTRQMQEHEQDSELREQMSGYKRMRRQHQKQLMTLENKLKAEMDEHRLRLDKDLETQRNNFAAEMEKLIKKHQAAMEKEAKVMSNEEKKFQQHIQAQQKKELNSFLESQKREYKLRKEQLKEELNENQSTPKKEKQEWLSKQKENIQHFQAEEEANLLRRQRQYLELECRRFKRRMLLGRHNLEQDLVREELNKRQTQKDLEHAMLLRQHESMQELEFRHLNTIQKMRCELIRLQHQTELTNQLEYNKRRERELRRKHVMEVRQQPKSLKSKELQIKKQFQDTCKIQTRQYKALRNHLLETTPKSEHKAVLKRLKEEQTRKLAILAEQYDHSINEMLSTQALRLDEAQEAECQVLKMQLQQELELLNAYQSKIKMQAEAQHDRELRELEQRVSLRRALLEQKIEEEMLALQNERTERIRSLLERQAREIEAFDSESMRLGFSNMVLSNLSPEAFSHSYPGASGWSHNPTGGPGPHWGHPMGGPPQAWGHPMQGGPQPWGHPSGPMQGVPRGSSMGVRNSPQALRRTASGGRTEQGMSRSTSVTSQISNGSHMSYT

| SMILES | remaining binding at 1 µM (panel of 468 kinases [1]) | remaining binding at 1 µM (panel of 468 kinases [2]) | remaining binding at 1 µM (panel of 468 kinases [3]) | remaining binding at 1 µM (panel of 468 kinases [4]) | remaining binding at 1 µM (panel of 468 kinases [5]) | remaining binding at 1 µM (panel of 468 kinases [6]) |
| --- | --- | --- | --- | --- | --- | --- |
| CNc1nc(Nc2ccc(C(=O)N3CCC(N4CCOCC4)CC3)c3c2OCO3)nc2[nH]cc(Cl)c12 [Compound 75, (7-((5-chloro-4-(methylamino)-7H-pyrrolo[2,3-d]pyrimidin-2-yl)amino)benzo[d][1,3]dioxol-4-yl)(4-morpholinopiperidin-1-yl)methanone] | 67% | 3.9% | 0.95% | 100% | 100% | 81% |
| CNc1nc(Nc2ccc(S(=O)(=O)N3CCC(N4CCOCC4)CC3)cc2OC)nc2[nH]cc(Cl)c12 [Compound 12, 5-chloro-N2-(2-methoxy-4-((4-morpholinopiperidin-1-yl)sulfonyl)phenyl)-N4-methyl-7H-pyrrolo[2,3-d]pyrimidine-2,4-diamine] | 100% | 74% | 1.8% | 100% | 100% | 81% |
| CNc1nc(Nc2ccc(P3(=O)CCN(C4CCOCC4)CC3)cc2OC)nc2[nH]cc(Cl)c12 [Compound 77, 4-(4-((5-chloro-4-(methylamino)-7H-pyrrolo[2,3-d]pyrimidin-2-yl)amino)-3-methoxyphenyl)-1-(tetrahydro-2H-pyran-4-yl)-1,4-azaphosphinane 4-oxide] | 100% | 39% | 0.7% | 100% | 100% | 82% |
